For 6 compounds, refractive index and mass density results are on record in the NIST ThermoML archive (doi:10.1016/j.jct.2015.07.035).

Numbers after ± are expanded uncertainties.

Data set [1] is described as follows: refractive index (Na D-line) (dimensionless). The conditions noted are these: 101.33 kPa, Liquid, Standard Abbe refractometry.
The conditions of data set [2]: 101.33 kPa, Liquid, Vibrating tube method.

`c1ccc(COCc2ccccc2)cc1` [dibenzyl ether]: the refractive index in data set [1] (298.2 K) turned out to be 1.56019 ± 0.00042. For the same compound, the mass density in data set [2] (298.2 K) was 1039.32 ± 1.1 kg/m3.
On to `OC1CCCCC1` [cyclohexanol], for which the refractive index in data set [1] (303.2 K) is reported as 1.46238 ± 0.00042. For the same compound, the mass density in data set [2] (303.2 K) stood at 941.42 ± 1.1 kg/m3.
`CC(O)c1ccccc1` (configuration not stated) [1-phenylethanol]: the refractive index in data set [1] (298.2 K) worked out at 1.52467 ± 0.00042. In addition, the mass density in data set [2] (298.2 K) was 1006.48 ± 1.1 kg/m3.
Take `CC(C)CC(=O)O` [3-methylbutanoic acid]: in data set [1] (298.2 K), the refractive index is reported as 1.40124 ± 0.00042. For the same compound, the mass density in data set [2] (298.2 K) is given as 921.34 ± 1.1 kg/m3.
With `Clc1ccccc1` [chlorobenzene], the refractive index in data set [1] (298.2 K) is recorded as 1.52165 ± 0.00042. In data set [2] (298.2 K), the mass density is recorded as 1101.08 ± 1.1 kg/m3.
On to `CCCCCCCCCCO` [decan-1-ol], for which the refractive index in data set [1] (298.2 K) is 1.43554 ± 0.00042. Moreover, in data set [2] (298.2 K), the mass density is reported as 826.41 ± 1 kg/m3.
